Assays:
Type in all cases: in vivo
[1] = system: pigweed (Amaranthus retroflexus); assay: Test A preemergence; settings: Amaranthus retroflexus, pre-emergence, 240 h, 0 to 100 scale where 0 is no effect and 100 is complete control, read-out: Pigweed plant response rating
Kochia (Kochia scoparia) [2] = assay: Test A preemergence; settings: Bassia scoparia, pre-emergence, 240 h, 0 to 100 scale where 0 is no effect and 100 is complete control, read-out: Kochia plant response rating
Summary of the method: (§1)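 Each rating is a visual injury score from 0 to 100 given about 10 d after treatment, judged against untreated controls kept alongside in the greenhouse. In loam soil–sand blend, seeds got a preemergence directed soil spray, while postemergence plants were 2 to 10 cm tall at spraying.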

[3] = system: giant foxtail (Setaria faberii); assay: Test A preemergence; settings: Setaria faberi, pre-emergence, 240 h, Preemergence
Summary of the method: as §1

[4] = system: ryegrass, Italian (Italian ryegrass, Lolium multiflorum); assay: Test A preemergence; settings: Lolium multiflorum, pre-emergence, 240 h, 0 to 100 scale where 0 is no effect and 100 is complete control, read-out: Ryegrass, Italian plant response rating
Summary of the method: as §1

[5] = system: ragweed (common ragweed, Ambrosia elatior); assay: Test A preemergence; settings: Ambrosia artemisiifolia, pre-emergence, 240 h, 0 to 100 scale where 0 is no effect and 100 is complete control, read-out: Ragweed plant response rating
Summary of the method: as §1

[6] = system: barnyardgrass (Echinochloa crus-galli); assay: Test A preemergence; settings: Echinochloa crus-galli, pre-emergence, 240 h, Preemergence
Summary of the method: as §1

[7] = system: sedge, umbrella (small-flower umbrella sedge, Cyperus difformis); assay: Test B flooded paddy test; settings: Cyperus difformis, 250 g ai/ha, Flood; 0 to 100 scale where 0 is no effect and 100 is complete control; read-out: Sedge, Umbrella plant response rating
Summary of the method: (§2)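 Response scored visually against untreated controls, 0 = no effect and 100 = complete control, 13–15 d after treatment in the greenhouse. Compounds added to paddy water held 3 cm above soil surface. Treatment given at 2-leaf stage.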

[8] = system: barnyardgrass (Echinochloa crus-galli); assay: Test B flooded paddy test; settings: Echinochloa crus-galli, 250 g ai/ha, Flood; 0 to 100 scale where 0 is no effect and 100 is complete control; read-out: Barnyardgrass plant response rating
Summary of the method: as §2

rice (Oryra sativa) = assay: Test B flooded paddy test; settings: Oryza sativa, 250 g ai/ha, Flood; 0 to 100 scale where 0 is no effect and 100 is complete control; read-out: Rice plant response rating
Summary of the method: as §2

[9] = system: ducksalad (Heteranthera limosa); assay: Test B flooded paddy test; settings: Heteranthera limosa, 250 g ai/ha, Flood; 0 to 100 scale where 0 is no effect and 100 is complete control; read-out: Ducksalad plant response rating
Summary of the method: as §2

[10] = system: wheat (Triticum aestivum); assay: Test A postemergence; settings: Triticum aestivum, post-emergence, 240 h
Summary of the method: as §1

[11] = system: pigweed (Amaranthus retroflexus); assay: Test A postemergence; settings: Amaranthus retroflexus, post-emergence, 240 h
Summary of the method: as §1

[12] = system: blackgrass (Alopecurus myosuroides); assay: Test A postemergence; settings: Alopecurus myosuroides, post-emergence, 240 h
Summary of the method: as §1

[13] = system: Galium (catchweed bedstraw, Galium aparine); assay: Test A postemergence; settings: Galium, post-emergence, 240 h
Summary of the method: as §1

Kochia (Kochia scoparia) [14] = assay: Test A postemergence; settings: Bassia scoparia, post-emergence, 240 h
Summary of the method: as §1

[15] = system: giant foxtail (Setaria faberii); assay: Test A postemergence; settings: Setaria faberi, post-emergence, 240 h
Summary of the method: as §1

[16] = system: ryegrass, Italian (Italian ryegrass, Lolium multiflorum); assay: Test A postemergence; settings: Lolium multiflorum, post-emergence, 240 h
Summary of the method: as §1

[17] = system: ragweed (common ragweed, Ambrosia elatior); assay: Test A postemergence; settings: Ambrosia artemisiifolia, post-emergence, 240 h
Summary of the method: as §1

corn (Zea mays) = assay: Test A postemergence; settings: Zea mays, post-emergence, 240 h
Summary of the method: as §1

[18] = system: barnyardgrass (Echinochloa crus-galli); assay: Test A postemergence; settings: Echinochloa crus-galli, post-emergence, 240 h
Summary of the method: as §1

[19] = 125 g ai/ha, preemergence, approx. 10 d

CN1C[C@H](c2cccc(C(F)(F)F)c2)[C@@H](C(=O)Nc2cnccc2C(F)(F)F)C1=O [Compound 1066]
pest or weed control at 31 g/ha ([1]; 31 g ai/ha, Preemergence): 0% | pest or weed control at 125 g/ha [1, 19]: 20% | pest or weed control at 31 g/ha (Kochia (Kochia scoparia) [2]; 31 g ai/ha, Preemergence): 0% | pest or weed control at 125 g/ha (Kochia (Kochia scoparia) [2]; [19]): 20% | pest or weed control at 31 g/ha ([3]; 31 g ai/ha, 0 to 100 scale where 0 is no effect and 100 is complete control, read-out: Foxtail, Giant plant response rating): 100% | pest or weed control at 125 g/ha ([3]; 125 g ai/ha, visual injury rating after approximately 10 d, read-out: Foxtail, Giant plant response rating (0 to 100 scale, 0 is no effect, 100 is complete control)): 100% | pest or weed control at 31 g/ha ([4]; 31 g ai/ha, Preemergence): 20% | pest or weed control at 125 g/ha [4, 19]: 50% | pest or weed control at 31 g/ha ([5]; 31 g ai/ha, Preemergence): 0% | pest or weed control at 125 g/ha [5, 19]: 0% | pest or weed control at 31 g/ha ([6]; 31 g ai/ha, 0 to 100 scale where 0 is no effect and 100 is complete control, read-out: Barnyardgrass plant response rating): 50% | pest or weed control at 125 g/ha ([6]; 125 g ai/ha, visual injury rating after approximately 10 d, read-out: Barnyardgrass plant response rating (0 to 100 scale, 0 is no effect, 100 is complete control)): 100% | pest or weed control at 250 g/ha [7]: 0% | pest or weed control at 250 g/ha [8]: 45% | pest or weed control at 250 g/ha (rice (Oryra sativa)): 0% | pest or weed control at 250 g/ha [9]: 75% | plant injury at 125 g/ha ([10]; 125 g ai/ha, postemergence, visual injury on 0 to 100 scale (0 no effect, 100 complete control), approx. 10 d, read-out: Wheat plant response rating): 50% | plant injury at 31 g/ha ([10]; Postemergence, 31 g ai/ha, visual injury after approx. 10 d, 0 to 100 scale, 0 no effect, 100 complete control, read-out: Plant response rating, Wheat): 0% | pest or weed control at 125 g/ha ([11]; 125 g ai/ha, postemergence, visual injury on 0 to 100 scale (0 no effect, 100 complete control), approx. 10 d, read-out: Pigweed plant response rating): 0% | pest or weed control at 31 g/ha ([11]; Postemergence, 31 g ai/ha, visual injury after approx. 10 d, 0 to 100 scale, 0 no effect, 100 complete control, read-out: Plant response rating, Pigweed): 0% | pest or weed control at 125 g/ha ([12]; 125 g ai/ha, postemergence, visual injury on 0 to 100 scale (0 no effect, 100 complete control), approx. 10 d, read-out: Blackgrass plant response rating): 60% | pest or weed control at 31 g/ha ([12]; Postemergence, 31 g ai/ha, visual injury after approx. 10 d, 0 to 100 scale, 0 no effect, 100 complete control, read-out: Plant response rating, Blackgrass): 0% | pest or weed control at 125 g/ha ([13]; 125 g ai/ha, postemergence, visual injury on 0 to 100 scale (0 no effect, 100 complete control), approx. 10 d, read-out: Galium plant response rating): 50% | pest or weed control at 31 g/ha ([13]; Postemergence, 31 g ai/ha, visual injury after approx. 10 d, 0 to 100 scale, 0 no effect, 100 complete control, read-out: Plant response rating, Galium): 0% | pest or weed control at 125 g/ha (Kochia (Kochia scoparia) [14]; 125 g ai/ha, postemergence, visual injury on 0 to 100 scale (0 no effect, 100 complete control), approx. 10 d, read-out: Kochia plant response rating): 0% | pest or weed control at 31 g/ha (Kochia (Kochia scoparia) [14]; Postemergence, 31 g ai/ha, visual injury after approx. 10 d, 0 to 100 scale, 0 no effect, 100 complete control, read-out: Plant response rating, Kochia): 0% | pest or weed control at 125 g/ha ([15]; 125 g ai/ha, postemergence, visual injury on 0 to 100 scale (0 no effect, 100 complete control), approx. 10 d, read-out: Foxtail, Giant plant response rating): 90% | pest or weed control at 31 g/ha ([15]; Postemergence, 31 g ai/ha, visual injury after approx. 10 d, 0 to 100 scale, 0 no effect, 100 complete control, read-out: Plant response rating, Foxtail, Giant): 70% | pest or weed control at 125 g/ha ([16]; 125 g ai/ha, postemergence, visual injury on 0 to 100 scale (0 no effect, 100 complete control), approx. 10 d, read-out: Ryegrass, Italian plant response rating): 30% | pest or weed control at 31 g/ha ([16]; Postemergence, 31 g ai/ha, visual injury after approx. 10 d, 0 to 100 scale, 0 no effect, 100 complete control, read-out: Plant response rating, Ryegrass, Italian): 30% | pest or weed control at 125 g/ha ([17]; 125 g ai/ha, postemergence, visual injury on 0 to 100 scale (0 no effect, 100 complete control), approx. 10 d, read-out: Ragweed plant response rating): 0% | pest or weed control at 31 g/ha ([17]; Postemergence, 31 g ai/ha, visual injury after approx. 10 d, 0 to 100 scale, 0 no effect, 100 complete control, read-out: Plant response rating, Ragweed): 0% | plant injury at 125 g/ha (corn (Zea mays); 125 g ai/ha, postemergence, visual injury on 0 to 100 scale (0 no effect, 100 complete control), approx. 10 d, read-out: Corn plant response rating): 40% | Corn plant response rating (crop injury, 0 = no effect, 100 = complete kill) at 31 g/ha (corn (Zea mays); Postemergence, 31 g ai/ha, visual injury after approx. 10 d, 0 to 100 scale, 0 no effect, 100 complete control): 0% | pest or weed control at 125 g/ha ([18]; 125 g ai/ha, postemergence, visual injury on 0 to 100 scale (0 no effect, 100 complete control), approx. 10 d, read-out: Barnyardgrass plant response rating): 70% | pest or weed control at 31 g/ha ([18]; Postemergence, 31 g ai/ha, visual injury after approx. 10 d, 0 to 100 scale, 0 no effect, 100 complete control, read-out: Plant response rating, Barnyardgrass): 50%

From patent US12077503B2, “Substituted cyclic amides and their use as herbicides” (FMC CORPORATION, priority 2015, dated 2024)
